ChEMBL document CHEMBL1201862, “PubChem BioAssay data set” (2004)
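How tested: cells in 96-well plates exposed to compound for 48 hours at five concentrations. GI50 = concentration required for 50% inhibition of growth.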 Active and inactive are the calls of the source. Cut-off read from the data, not from the text of the source: active = GI50 up to about 1.1 µM and inactive = higher.

How the values were obtained:
Assay in all cases: NCI anticancer screen, dose series, 48 h
SW-620 = tested on: SW-620
A498 = tested on: A498
NCI-H226 = tested on: NCI-H226
SF-295 = tested on: SF-295
Malme-3M = tested on: Malme-3M
SK-MEL-2 = tested on: SK-MEL-2
A549 = tested on: A549
OVCAR-8 = tested on: OVCAR-8
HCT-15 = tested on: HCT-15
M14 = tested on: M14
BT-549 = tested on: BT-549
OVCAR-4 = tested on: OVCAR-4
LOX IMVI = tested on: LOX IMVI
HL-60 = tested on: HL-60
786-0 = tested on: 786-0
HCT-116 = tested on: HCT-116
MCF7 = tested on: MCF7
CAKI-1 = tested on: CAKI-1
HT-29 = tested on: HT-29
HCC 2998 = tested on: HCC 2998

Measured: GI50

CCC1c2[nH]c3ccccc3c2C[C@H]2C(=O)NC(CCCCNC(=O)OC(C)(C)C)C(=O)N12 (stereo not given in full)
31 µM: HCT-15
inactive: SW-620 47.2 µM | A498 52.8 µM | NCI-H226 > 100 µM | SF-295 22.9 µM | Malme-3M 18 µM | SK-MEL-2 26.6 µM | A549 34.3 µM | OVCAR-8 33 µM | M14 17.5 µM | BT-549 24.1 µM | OVCAR-4 28.2 µM | LOX IMVI 24.8 µM | HL-60 31.8 µM | 786-0 22.2 µM | HCT-116 26.1 µM | MCF7 35.8 µM | CAKI-1 25.9 µM | HT-29 30.5 µM

Oc1c(Br)cc(CN(Cc2cc(Br)c(O)c(Br)c2)C2CCCCC2)cc1Br
> 100 µM: HCT-15
inactive: SW-620 > 100 µM | A498 > 100 µM | NCI-H226 > 100 µM | SF-295 > 100 µM | Malme-3M > 100 µM | SK-MEL-2 > 100 µM | A549 > 100 µM | OVCAR-8 > 100 µM | M14 > 100 µM | BT-549 > 100 µM | OVCAR-4 > 100 µM | LOX IMVI > 100 µM | HL-60 > 100 µM | 786-0 > 100 µM | HCT-116 > 100 µM | MCF7 > 100 µM | CAKI-1 > 100 µM | HT-29 > 100 µM

CC(=O)N1C=Cc2c(c(C)c3c([nH]c4ccccc43)c2C)C1
2.1 µM: HCT-15
inactive: SW-620 2.51 µM | A498 14.8 µM | NCI-H226 10.3 µM | SF-295 8.22 µM | Malme-3M 7.53 µM | SK-MEL-2 12.3 µM | A549 4.54 µM | OVCAR-8 6.03 µM | M14 7.28 µM | BT-549 3.33 µM | OVCAR-4 2.13 µM | LOX IMVI 4.07 µM | HL-60 23.1 µM | 786-0 2.41 µM | HCT-116 1.53 µM | MCF7 2.72 µM | CAKI-1 10.1 µM | HT-29 4.58 µM

CCCCc1ccc(Nc2nc(Cl)c3[nH]cnc3n2)cc1
18 µM: HCT-15
inactive: HCC 2998 25.5 µM | SW-620 19.2 µM | A498 21.4 µM | NCI-H226 39.6 µM | SF-295 17.7 µM | Malme-3M 19.3 µM | SK-MEL-2 14.6 µM | A549 33.5 µM | OVCAR-8 18.4 µM | M14 20.9 µM | BT-549 28.1 µM | OVCAR-4 34.4 µM | LOX IMVI 13.7 µM | HL-60 42.1 µM | 786-0 15.7 µM | HCT-116 16.3 µM | MCF7 20.4 µM | CAKI-1 27.2 µM | HT-29 19.9 µM

O=c1o[nH]/c(=N/c2ccccc2)n1-c1ccccc1
> 100 µM: HCT-15
inactive: HCC 2998 93.3 µM | SW-620 > 100 µM | A498 > 100 µM | NCI-H226 > 100 µM | SF-295 > 100 µM | Malme-3M > 100 µM | SK-MEL-2 > 100 µM | A549 > 100 µM | OVCAR-8 > 100 µM | M14 > 100 µM | BT-549 > 100 µM | OVCAR-4 > 100 µM | LOX IMVI > 100 µM | HL-60 > 100 µM | 786-0 > 100 µM | HCT-116 > 100 µM | MCF7 > 100 µM | CAKI-1 > 100 µM | HT-29 > 100 µM

CC(C)C(Br)C(=O)NCC(=O)O (stereo not given)
active: HL-60 0.245 µM
> 100 µM: HCT-15
inactive: SW-620 > 100 µM | A498 > 100 µM | NCI-H226 > 100 µM | SF-295 > 100 µM | Malme-3M > 100 µM | SK-MEL-2 > 100 µM | A549 > 100 µM | OVCAR-8 > 100 µM | M14 > 100 µM | BT-549 > 100 µM | OVCAR-4 > 100 µM | LOX IMVI > 100 µM | 786-0 > 100 µM | HCT-116 > 100 µM | MCF7 > 100 µM | CAKI-1 > 100 µM | HT-29 > 100 µM

O=C(O)c1ccccc1C(=O)OCC1CCCN2CCCCC12 (stereo not given)
> 100 µM: HCT-15
inactive: HCC 2998 > 100 µM | SW-620 > 100 µM | A498 > 100 µM | NCI-H226 > 100 µM | SF-295 > 100 µM | Malme-3M > 100 µM | SK-MEL-2 > 100 µM | A549 > 100 µM | OVCAR-8 > 100 µM | M14 > 100 µM | BT-549 > 100 µM | OVCAR-4 > 100 µM | LOX IMVI > 100 µM | 786-0 > 100 µM | HCT-116 > 100 µM | MCF7 > 100 µM | CAKI-1 > 100 µM | HT-29 > 100 µM
